SMILES strings stand for the structures.

The subject of the assay is HIV-1 (IIIB). The experiment in a line: Antiviral (HIV) assay in MT-4 cells. The format is cell-based. The conditions noted are these: Human immunodeficiency virus 1, MT4, 120 h; HIV-1 IIIB in MT-4 cells, 5 days incubation, Cell Titer Glo; average of at least two independent experiments. The method, boiled down: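 MT-4 cells, infected with HIV-1 IIIB (1:250 dilution of concentrated stock) or mock-infected, were exposed to 1:3 serially diluted compounds in RPMI with 10% FBS. After 5 days at 37° C., CellTiter-Glo luminescence was read. EC50 = concentration causing […], from sigmoidal dose-response fits.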
`CCCCCCOC(=O)C(C)(C)NP(=O)(CO[C@H](C)Cn1cnc2c(N)ncnc21)NC(C)(C)C(=O)OCC12CCC(CC1)C2` (stereo partly drawn) [Example 80, Bicyclo[2.2.1]heptan-1-ylmethyl 2-((((((R)-1-(6-amino-9H-purin-9-yl)propan-2-yl)oxy)methyl)((1-(hexyloxy)-2-methyl-1-oxopropan-2-yl)amino)phosphoryl)amino)-2-methylpropanoate]: the EC50 (usually the concentration needed to bring the measured effect to its halfway point) is > 500 nM.
The figure for `CCCCCCOC(=O)C(C)(C)NP(=O)(CO[C@H](C)Cn1cnc2c(N)ncnc21)NC(C)(C)C(=O)OC(C)C1CC1` (stereo partly drawn) [Example 81, 1-Cyclopropylethyl 2-((((((R)-1-(6-amino-9H-purin-9-yl)propan-2-yl)oxy)methyl)((1-(hexyloxy)-2-methyl-1-oxopropan-2-yl)amino)phosphoryl)amino)-2-methylpropanoate] is > 500 nM; for `CCCCCCOC(=O)C(C)(C)NP(=O)(CO[C@H](C)Cn1cnc2c(NCc3oc(=O)oc3C)ncnc21)NC(C)(C)C(=O)OCCCCCC` [Example 82, Dihexyl 2,2′-(((((1-(6-(((5-methyl-2-oxo-1,3-dioxol-4-yl)methyl)amino)-9H-purin-9-yl)propan-2-yl)oxy)methyl)phosphoryl)bis(azanediyl))(R)-bis(2-methylpropanoate)] it is 345 nM; for `CCCCCCOC(=O)C(C)(C)NP(=O)(CO[C@H](C)Cn1cnc2c(=N)n(Cc3oc(=O)oc3C)cnc21)NC(C)(C)C(=O)OCCCCCC` [Example 83, Dihexyl 2,2′-(((((1-(6-imino-1-((5-methyl-2-oxo-1,3-dioxol-4-yl)methyl)-1,6-dihydro-9H-purin-9-yl)propan-2-yl)oxy)methyl)phosphoryl)bis(azanediyl))(R)-bis(2-methylpropanoate)] it is 6 nM.
On to `CCCCCCOC(=O)C(C)(C)NP(=O)(CO[C@H](C)Cn1cnc2/c(=N\Cc3oc(=O)oc3C)n(Cc3oc(=O)oc3C)cnc21)NC(C)(C)C(=O)OCCCCCC` [Example 84, Dihexyl 2,2′-(((((1-(1-((5-methyl-2-oxo-1,3-dioxol-4-yl)methyl)-6-(((5-methyl-2-oxo-1,3-dioxol-4-yl)methyl)imino)-1,6-dihydro-9H-purin-9-yl)propan-2-yl)oxy)methyl)phosphoryl)bis(azanediyl))(R,E)-bis(2-methylpropanoate)], for which the EC50 is 229 nM.
Consider `C[C@H](Cn1cnc2c(N)ncnc21)OCP(=O)(NC(C)(C)C(=O)O[C@H]1C[C@@H](c2ccccc2)C1)NC(C)(C)C(=O)O[C@H]1C[C@@H](c2ccccc2)C1` [Example 85, Bis((1s,3S)-3-phenylcyclobutyl) 2,2′-((((((R)-1-(6-amino-9H-purin-9-yl)propan-2-yl)oxy)methyl)phosphoryl)bis(azanediyl))bis(2-methylpropanoate)], for which the EC50 came out at 5 nM.
The same measure for `C[C@H](Cn1cnc2c(N)ncnc21)OCP(=O)(NC(C)(C)C(=O)OC1CC2(CCCCC2)C1)NC(C)(C)C(=O)OC1CC2(CCCCC2)C1` (stereo partly drawn) [Example 86, Di(spiro[3.5]nonan-2-yl) 2,2′-(((((1-(6-amino-9H-purin-9-yl)propan-2-yl)oxy)methyl)phosphoryl)bis(azanediyl))(R)-bis(2-methylpropanoate)]: 5 nM.
In turn, `C[C@H](Cn1cnc2c(N)ncnc21)OCP(=O)(NC(C)(C)C(=O)OCC12CCC(CC1)C2)NC(C)(C)C(=O)OCC12CCC(CC1)C2` [Example 87, Bis(bicyclo[2.2.1]heptan-1-ylmethyl) 2,2′-(((((1-(6-amino-9H-purin-9-yl)propan-2-yl)oxy)methyl)phosphoryl)bis(azanediyl))(R)-bis(2-methylpropanoate)] came in with an EC50 of 6 nM.
The figure for `C[C@H](Cn1cnc2c(N)ncnc21)OCP(=O)(NC(C)(C)C(=O)OCC1CCC(F)(F)CC1)NC(C)(C)C(=O)OCC1CCC(F)(F)CC1` [Example 88, Bis((4,4-difluorocyclohexyl)methyl) 2,2′-(((((1-(6-amino-9H-purin-9-yl)propan-2-yl)oxy)methyl)phosphoryl)bis(azanediyl))(R)-bis(2-methylpropanoate)] is 3 nM; for `C[C@H](Cn1cnc2c(N)ncnc21)OCP(=O)(NC(C)(C)C(=O)OCC1CCCCCC1)NC(C)(C)C(=O)OCC1CCCCCC1` [Example 89, Bis(cycloheptylmethyl) 2,2′-(((((1-(6-amino-9H-purin-9-yl)propan-2-yl)oxy)methyl)phosphoryl)bis(azanediyl))(R)-bis(2-methylpropanoate)] it is 6 nM; for `C[C@H](Cn1cnc2c(N)ncnc21)OCP(=O)(NC(C)(C)C(=O)OC1CC(C2CCC2)C1)NC(C)(C)C(=O)OC1CC(C2CCC2)C1` (stereo partly drawn) [Example 90, Di([1,1′-bi(cyclobutan)]-3-yl) 2,2′-(((((1-(6-amino-9H-purin-9-yl)propan-2-yl)oxy)methyl)phosphoryl)bis(azanediyl))(R)-bis(2-methylpropanoate)] it is 7 nM.
Turning to `C[C@H](Cn1cnc2c(N)ncnc21)OCP(=O)(NC(C)(C)C(=O)OC[C@H]1CC[C@H](C)CC1)NC(C)(C)C(=O)OC[C@H]1CC[C@H](C)CC1` [Example 91, Bis((trans-4-methylcyclohexyl)methyl) 2,2′-((((((R)-1-(6-amino-9H-purin-9-yl)propan-2-yl)oxy)methyl)phosphoryl)bis(azanediyl))bis(2-methylpropanoate)], the EC50 was 5 nM.
Compound `CCC[C@H]1CC[C@H](COC(=O)C(C)(C)NP(=O)(CO[C@H](C)Cn2cnc3c(N)ncnc32)NC(C)(C)C(=O)OC[C@H]2CC[C@H](CCC)CC2)CC1` [Example 92] yielded an EC50 of 23 nM.
The figure for `C[C@H](Cn1cnc2c(N)ncnc21)OCP(=O)(NC(C)(C)C(=O)O[C@H]1CC[C@H](c2ccccc2)CC1)NC(C)(C)C(=O)O[C@H]1CC[C@H](c2ccccc2)CC1` [Example 93, Bis(trans-4-phenylcyclohexyl) 2,2′-((((((R)-1-(6-amino-9H-purin-9-yl)propan-2-yl)oxy)methyl)phosphoryl)bis(azanediyl))bis(2-methylpropanoate)] is 97 nM; for `CCCCCCOC(=O)C(C)(C)NP(=O)(CO[C@H](C)Cn1cnc2c(NC(=O)OCCOC(=O)c3ccccc3)ncnc21)NC(C)(C)C(=O)OCCCCCC` [Example 94, Dihexyl 2,2′-(((((1-(6-(((2-(benzoyloxy)ethoxy)carbonyl)amino)-9H-purin-9-yl)propan-2-yl)oxy)methyl)phosphoryl)bis(azanediyl))(R)-bis(2-methylpropanoate)] it is 130 nM; for `CCCCCCOC(=O)C(C)(C)NP(=O)(CO[C@H](C)Cn1cnc2c(NC(=O)OCC(=O)OCc3oc(=O)oc3C)ncnc21)NC(C)(C)C(=O)OCCCCCC` [Example 95, Dihexyl 2,2′-(((((1-(6-(((2-((5-methyl-2-oxo-1,3-dioxol-4-yl)methoxy)-2-oxoethoxy)carbonyl)amino)-9H-purin-9-yl)propan-2-yl)oxy)methyl)phosphoryl)bis(azanediyl))(R)-bis(2-methylpropanoate)] it is 27 nM.
`CCCCCCOC(=O)C(C)(C)NP(=O)(CO[C@H](C)Cn1cnc2c(NC(=O)[C@H]3CCC(=O)O3)ncnc21)NC(C)(C)C(=O)OCCCCCC` [Example 96, Dihexyl 2,2′-((((((R)-1-(6-((R)-5-oxotetrahydrofuran-2-carboxamido)-9H-purin-9-yl)propan-2-yl)oxy)methyl)phosphoryl)bis(azanediyl))bis(2-methylpropanoate)] had an EC50 of 11 nM.
The figure for `CCCCCCOC(=O)C(C)(C)NP(=O)(CO[C@H](C)Cn1cnc2c(NC(=O)OCC(C)(C)C(=O)OCc3oc(=O)oc3C)ncnc21)NC(C)(C)C(=O)OCCCCCC` [Example 98, Dihexyl 2,2′-(((((1-(6-(((2,2-dimethyl-3-((5-methyl-2-oxo-1,3-dioxol-4-yl)methoxy)-3-oxopropoxy)carbonyl)amino)-9H-purin-9-yl)propan-2-yl)oxy)methyl)phosphoryl)bis(azanediyl))(R)-bis(2-methylpropanoate)] is 213 nM; for `CCCCCCOC(=O)C(C)(C)NP(=O)(CO[C@H](C)Cn1cnc2c(NC(=O)CCCC(=O)OCc3oc(=O)oc3C)ncnc21)NC(C)(C)C(=O)OCCCCCC` [Example 99, (5-Methyl-2-oxo-1,3-dioxol-4-yl)methyl 5-[[9-[(2R)-2-[bis[(2-hexoxy-1,1-dimethyl-2-oxo-ethyl)amino]phosphorylmethoxy]propyl]purin-6-yl]amino]-5-oxo-pentanoate] it is 91 nM; for `CCCCCCOC(=O)C(C)(C)NP(=O)(CO[C@H](C)Cn1cnc2c(NC(=O)OC(C)(C)CC(=O)OCc3oc(=O)oc3C)ncnc21)NC(C)(C)C(=O)OCCCCCC` [Example 101, Dihexyl 2,2′-(((((1-(6-((((2-methyl-4-((5-methyl-2-oxo-1,3-dioxol-4-yl)methoxy)-4-oxobutan-2-yl)oxy)carbonyl)amino)-9H-purin-9-yl)propan-2-yl)oxy)methyl)phosphoryl)bis(azanediyl))(R)-bis(2-methylpropanoate)] it is 12 nM.
